Patent US10351519B2, “Sulfamate derivative compounds, processes for preparing them and their uses” (BIO-PHARM SOLUTIONS CO., LTD., priority 2016, dated 2019)

What was measured:
Assay type in all cases: in vivo
[1] = tested on: SD rats; experiment: Anti-epilepsy activity, MES test, rat; settings: for ED50: Rattus norvegicus, po
Outline: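 Maximal electroshock delivered through corneal electrodes at 60 Hz for 0.2 s: 50 mA for male ICR mice (19–25 g), 150 mA for male SD rats (100–130 g). Compounds given orally in 30% PEG 400 or 20% Tween 80 in saline, tested at peak time, three doses per compound. ED50 for seizure protection derived by Litchfield–Wilcoxon log-probit analysis.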

[2] = tested on: ICR mice; experiment: Anti-epilepsy activity, scPTZ test, mouse; settings: for ED50: ip
From the text: (§1) In this experiment, each test compound sample was formulated as described in Biological Experimental Example I, and administered intraperitoneally to the test animals (mice; ICR or Rat; SD); Experimental animals, male ICR mice and male SD rats, were purchased from OrientBio or Nara biotech, Korea, and housed 4-5 mice per a cage for 4-5 days. The range of mice body weight was used between 19 and 26 grams and range of rats body weight was used between 100 and 130 grams. After Peak time (0.5, 1, 2 and 4 hr) from the administration, PTZ (Pentylenetetrazol) was administered subcutaneously in the concentration capable of inducing 97% intermittent convulsions (mice: 76-110 mg/kg·bw, 10 μl/g, or rats: 79-110 mg/kg·bw, 2 μl/g). If clonic seizure was not observed for at least 30 minutes in the PTZ administered animal, it can be considered that the test compound has anti-epilepsy activity. The median effective dose (ED50) is determined using 6 animals per a concentration (total three different concen-trations), and calculated by Litchfield and Wicoxon log-probit method which is a dose-response relationship.

[3] = tested on: SD rats; experiment: Anti-epilepsy activity, scPTZ test, rat; settings: for ED50: Rattus norvegicus, ip
From the text: as §1

[4] = tested on: Sprague-Dawley rats; experiment: Antiallodynic activity on Chung model (SNL, spinal nerve ligation); settings: orally; for ED50: Rattus norvegicus, po, at peak time
[5] = tested on: ICR mice; experiment: Writhing test (0.6% acetic acid); settings: for ED50: Mus musculus, po
Protocol: To examine the pain relief effect of the sulfamate compounds, a writhing test was conducted, referring to Fischer, L. G. et al. (2008).
ICR mice (male, 24-28 g; Orient Bio, Korea) were habituated before test in test room for 1 hour. Animals were fasted 2 hr, before administration of compounds. Each of Compounds was orally administered at the three dose, 10 ul/g, by bodyweight (All compounds were dissolved in a vehicle of 30% (v/v) PEG 400 or 20% (v/v) Tween 80. The control group was treated with the vehicle without compounds.
0.25-2 hour after the administration of Compounds, 0.6% acetic acid at the dose of 10 ul/g, by bodyweight was injected into the mice. Animals were habituated in the cage for 5 min. 5 min after habituation, the number of writhes (abdominal constriction) was conted for 15 min, referring to Korzeniewska-Rybicka, I. et al. (1998) and compared with that of a control.

SMILES	MES test (po) Peak time [1]	ED50 [1]	scPTZ test (ip) Peak time [2]	ED50 [2]	scPTZ test (ip) Peak time [3]	ED50 [3]	ED50 [4]	SNL Peak Time [4]	Writhing test(po) Peak Time [5]	ED50 [5]	scPTZ test (ip) efficacy % ([3]; 40 mg/kg)	SNL efficacy % ([4]; 30 mg/kg)
COCO[C@H](c1ccccc1Cl)[C@@H](C)OS(N)(=O)=O [Example 70, (1R, 2R)-1-(2-chlorophenyl)-1-(methoxymethoxy)propan-2-yl sulfamate]	(1 h)	46.6 mg/kg	2 h	50.2 mg/kg	(1 h)	36 mg/kg	6.5 mg/kg	1 h	–	–	–	–
C[C@H](OS(N)(=O)=O)[C@@H](O)c1c(Cl)cccc1Cl [Example 7, (1S, 2S)-1-(2,6-dichlorophenyl)-1-hydroxypropan-2-yl sulfamate]	(2 h)	23.5 mg/kg	0.5 h	8.6 mg/kg	(0.5 h)	10 mg/kg	4.4 mg/kg	0.5 h	0.5 h	69.6 mg/kg	–	–
C[C@@H](OS(N)(=O)=O)[C@H](O)c1c(Cl)cccc1Cl [Example 8, (1R, 2R)-1-(2,6-dichlorophenyl)-1-hydroxypropan-2-yl sulfamate]	(1 h)	24 mg/kg	1 h	13.5 mg/kg	(1 h)	15.3 mg/kg	35.3 mg/kg	1 h	0.25 h	50.6 mg/kg	–	–
C[C@@H](OS(N)(=O)=O)[C@H](O)c1ccccc1Cl [Example 2, (1R, 2R)-1-(2-chlorophenyl)-1-hydroxypropan-2-yl sulfamate]	(2 h)	5 mg/kg	1 h	18.2 mg/kg	1 h	–	–	1 h	–	–	33.3%	30(38.6%)
